Data from patent US20250368609A1, “TRIAZINANE COMPOUND AND COMPOSITION CONTAINING SAME” (SUMITOMO CHEMICAL COMPANY, LIMITED, priority 2022, published 2025).

Experiments:
corn (Zea mays) = settings: in vivo, 7 days
velvetleaf = assay: Test method 3: upland field, post-emergence foliar application test, herbicidal efficacy against velvetleaf; type: in vivo, Abutilon theophrasti; parameters: key: if there is no or almost no difference in the state of emergence or growth of test weeds at the time of investigation as compared with that of test weeds in an untreated control, the evaluation of the herbicidal efficacy is classified as “0”; if the test weeds are completely withered or emergence or growth of the test weeds is suppressed, the evaluation of the herbicidal efficacy is classified as “10”; settings: scale 0 to 10
[1] = test system: waterhemp (Amaranthus tuberculatus=A. rudis); assay: Test method 3: upland field, post-emergence foliar application test, herbicidal efficacy against waterhemp; type: in vivo; settings: scale 0 to 10
[2] = test system: velvetleaf (Abutilon theophrasti); assay: Test method 1: upland field, post-emergence foliar application test (velvetleaf); type: in vivo; parameters: key: if there is no or almost no difference in the state of emergence or growth of test weeds at the time of investigation as compared with that of test weeds in an untreated control, the evaluation of the herbicidal efficacy is classified as “0”; if the test weeds are completely withered or emergence or growth of the test weeds is suppressed, the evaluation of the herbicidal efficacy is classified as “10”; settings: scale 0 to 10
Excerpt: Next, the herbicidal efficacy of the compound of the present invention is shown by test examples. In the following test examples, the evaluation of the herbicidal efficacy is classified into 0 to 10, where if there is no or almost no difference in the state of emergence or growth of test weeds at the time of investigation as compared with that of test weeds in an untreated control, the evaluation of the herbicidal efficacy is classified as “0”, and if the test weeds are completely withered or emergence or growth of the test weeds is suppressed, the evaluation of the herbicidal efficacy is classified as “10”. A pot is filled with a commercially available culture soil, and seeds of velvetleaf (Abutilon theophrasti) are sown in the pot. Thereafter, the seeds are covered with approximately 0.5 cm of soil, and each of the seeds is cultivated in a greenhouse for 13 days. Next, a predetermined amount of the test compound is dissolved in 1 mL of a DMF solution containing 2% of an adjuvant, and 18 mL of water is added thereto, thereby preparing a diluent. The diluent is uniformly sprayed over plants so as to give the plants a predetermined treatment amount. Thereafter, the plants are cultivated in the greenhouse for 20 days, and herbicidal efficacy is evaluated.

C=CCOC(=O)C1(Oc2cc(-n3c(=O)n(C)c(=S)n(C)c3=O)c(F)cc2Cl)CC1 [Compound I-5]
Phytotoxicity Corn 1 WAT (corn (Zea mays)): 1
Herbicidal efficacy Velvetleaf 1 WAT (velvetleaf; dosage 16 gAI/ha): 10
Herbicidal efficacy Velvetleaf 1 WAT (velvetleaf; dosage 32 gAI/ha): 10
Herbicidal efficacy Waterhemp 1 WAT ([1]; dosage 16 gAI/ha): 9
Herbicidal efficacy Waterhemp 1 WAT ([1]; dosage 32 gAI/ha): 9
Herbicidal efficacy Velvetleaf 3 WAT ([2]; dosage 1 gAI/ha): 10
Herbicidal efficacy Velvetleaf 3 WAT ([2]; dosage 2 gAI/ha): 10

C=CCOC(=O)C(C)Oc1cc(-n2c(=O)n(C)c(=S)n(C)c2=O)c(F)cc1Cl (stereo not shown) [Compound C-2]
Herbicidal efficacy Velvetleaf 3 WAT ([2]; dosage 1 gAI/ha): 1
Herbicidal efficacy Velvetleaf 3 WAT ([2]; dosage 2 gAI/ha): 1

CCOCCOC(=O)C(C)Oc1cc(-n2c(=O)n(C)c(=S)n(C)c2=O)c(F)cc1Cl (stereo not shown) [Compound C-3]
Herbicidal efficacy Velvetleaf 3 WAT ([2]; dosage 1 gAI/ha): 1
Herbicidal efficacy Velvetleaf 3 WAT ([2]; dosage 2 gAI/ha): 1

Cn1c(=S)n(C)c(=O)n(-c2cc(OC3CCCC3)c(Cl)cc2F)c1=O [Compound C-1]
Herbicidal efficacy Velvetleaf 3 WAT ([2]; dosage 1 gAI/ha): 1
Herbicidal efficacy Velvetleaf 3 WAT ([2]; dosage 2 gAI/ha): 1

CCOC(=O)COC(=O)C1(Oc2cc(-n3c(=O)cc(C(F)(F)F)n(C)c3=O)c(F)cc2Cl)CC1 [Compound B-2]
Herbicidal efficacy Velvetleaf 1 WAT (velvetleaf; dosage 8 gAI/ha): 10
Herbicidal efficacy Velvetleaf 1 WAT (velvetleaf; dosage 16 gAI/ha): 10
Herbicidal efficacy Waterhemp 1 WAT ([1]; dosage 8 gAI/ha): 9
Herbicidal efficacy Waterhemp 1 WAT ([1]; dosage 16 gAI/ha): 9

C=CCOC(=O)C1(Oc2cc(-n3c(=O)cc(C(F)(F)F)n(C)c3=O)c(F)cc2Cl)CC1 [Compound B-1]
Herbicidal efficacy Velvetleaf 1 WAT (velvetleaf; dosage 16 gAI/ha): 10
Herbicidal efficacy Velvetleaf 1 WAT (velvetleaf; dosage 32 gAI/ha): 10
Herbicidal efficacy Waterhemp 1 WAT ([1]; dosage 16 gAI/ha): 9
Herbicidal efficacy Waterhemp 1 WAT ([1]; dosage 32 gAI/ha): 9

CCOC(=O)COC(=O)C1(Oc2cc(-n3c(=O)n(C)c(=S)n(C)c3=O)c(F)cc2Cl)CC1 [Compound I-14]
Phytotoxicity Corn 1 WAT (corn (Zea mays)): 1
Herbicidal efficacy Velvetleaf 1 WAT (velvetleaf; dosage 8 gAI/ha): 10
Herbicidal efficacy Velvetleaf 1 WAT (velvetleaf; dosage 16 gAI/ha): 10
Herbicidal efficacy Waterhemp 1 WAT ([1]; dosage 8 gAI/ha): 9
Herbicidal efficacy Waterhemp 1 WAT ([1]; dosage 16 gAI/ha): 9
Herbicidal efficacy Velvetleaf 3 WAT ([2]; dosage 1 gAI/ha): 10
Herbicidal efficacy Velvetleaf 3 WAT ([2]; dosage 2 gAI/ha): 10
